“Also recorded” adds a separate entry of the source. Ends that are not written are not given here.
What was measured:
[1] = test system: platelets (platelet-rich plasma); test: γ-thrombin-induced platelet aggregation in platelet-rich plasma; assay type: cell-based, human; details: for peptide concentration at which γ-thrombin-induced platelet aggregation returned: 70 nM γ-thrombin; for Fold Increase in Aggregation Inhibition over RPPGF: γ-thrombin, compared to RPPGF at 0.2 mM
Description: (§1) Fresh whole blood was collected and mixed with 0.013 M sodium citrate and platelet-rich plasma was prepared according to the method of Meloni et al., J. Biol. Chem. 266, 6786 (1991). Platelet-rich plasma with a normalized platelet count between 2-2.5×10^8 platelets/ml was added to a cuvette of an aggregometer (Chronlog Corp., Havertown, Pa.), standardized using the protocol of Meloni et al., supra. Peptides to be examined were added to the cuvette and the mixture stabilized for a few moments. Once the baseline was stabilized, γ-thrombin (10-70 NM) (Haematologic Technologies, Essex Junction, Vt.) was added to determine the minimal concentration of the agonist necessary to achieve full platelet aggregation. All investigations with peptides were performed using threshold concentrations of γ-thrombin. Aggregation was allowed to proceed for 5 minutes before stopping. When ADP-induced platelet aggregation studies were performed, 1-5 μM ADP (Sigrna) was added to the cuvette containing platelet-rich plasma.

[2] = test system: platelets (platelet-rich plasma); test: ADP-induced platelet aggregation in platelet-rich plasma; assay type: cell-based, human; details: 1 mM peptide, 4.5 μM ADP
Description: as §1

[3] = biological target: T1, biotin-NAT12 (NATLDPRSFLLR, peptide from PAR1) (Homo sapiens, UniProt P25116); test: Biotin-NAT12 binding assay to peptides coupled to microtiter plates; details: peptides at 10 μg/ml coupled to microtiter plate
[4] = test system: Normal human lung fibroblasts (NHLF); test: α-thrombin-induced calcium mobilization in fibroblasts (fura-2); assay type: cell-based; details: for Ca2+ % Inhibition At 0.2 mM Peptide: thrombin-induced calcium mobilization in fibroblasts
Description: The second assay developed to assess peptides from the combinatorial libraries uses inhibition of α-thrombin-induced calcium mobilization in fibroblasts. Normal human lung fibroblasts (NHLF) were purchased from Clonetics, San Diego, Calif., an affiliate of Bio-Wittaker, Walkersville, Md. The cytoplasmic free Ca^2+ concentration ([Ca^2+]i) was measured using the fluorescent Ca^2+ indicator fura-2 (Molecular Probes, Inc., Eugene, Oreg.). Suspension of fibroblasts in Hepes-Tyrode's buffer were loaded with fura-2 by incubation at 37° C. with 2 μM fura-2/acetoxymethyl ester for 45 minutes according to the method of Rasmussen et al., J. Biol. Chem. 268, 14322 (1993). The labeled fibroblasts were separated from excess probe by washing by centrifugation at 1000 rpm (180×g). Aliquots of the labeled fibroblasts were transferred into a quartz cuvette with a magnetic stirrer, which was then placed in a thennostatically controlled chamber at 37° C. in a fluorescence spectrophotometer (Perkin-Elmer LS50B spectrofluorometer, Chicago, Ill.). Reagents, test peptide (SEQ ID NO: 5) (from 0.2 mM to effective lower concentration), and α-thrombin (2-4 nM), were sequentially added directly to the cuvette. The excitation wavelengths varied between 340 and 380 nm. Fluorescence was measured by recording emitted light at 510 nm as reported by Fisher et al., Mol Pharm. 35, 195 (1989). The minimum emission was determined on a solubilized fibroblast sample in the presence of 10 mM EDTA; maximum emission was determined on the same sample with 10 mM Ca^2+ added. The intrafibroblast free Ca^2+ concentration was calculated by the method of Grykiewicz et al., J. Biol. Chem. 260, 3440 (1985). The ratio of the fluorescence readings was calculated as R=340/380 nm and processed according to the equation [Ca^2+]i=KD((R−Rmim)/Rmax−R)) (Sf2/Sb2) to determine the intrafibroblast free Ca^2+ concentration. The KD for fura-2 was assumed to be 224 nM. Rmax and Rmin are the maximum and minimum fluorescence ratios measured at the end of the experiment, respectively; Sf2 and Sb2 are the fluorescence values at 380 nm in the absence and presence of saturating [Ca 2+], respectively. The reaction was monitored for 3-5 minutes. […] In FIG. 4, peptide RGDWC (SEQ ID NO: 20) at 0.2 mM inhibited 31% of 4 nM α-thrombin-induced Ca^2+ mobilization in fibroblasts.

[5] = biological target: T1, biotin-NAT12 (NATLDPRSFLLR, peptide from PAR1); test: Biotin-NAT12 binding assay to peptides coupled to microtiter plates; details: relative to RPPGF given arbitrary binding level of 1
Description: A third assay was developed to ascertain the ability of biotin-NAT12 (NATLDPRSFLLR, SEQ ID NO: 41) to directly bind to peptides linked to microtiter plates. In this assay, peptide analogs were linked to microtiter plate cuvette wells by incubation of the peptide in 0.1 M Na2CO3, pH 9.6 buffer overnight at 4° C. After coupling the peptide to the cuvette well, the wells were dumped and each well was blocked with 1% bovine serun albumin in 0.01 M Na3PO4, 0.15 M NaCl, at pH 7.4. After incubation for 1 hour, the wells were dumped and washed three times with PBS-Tween. The wells were then incubated with biotin-NAT12. The amount of biotin-NAT12 bound was determined by adding streptavidin-peroxidase followed by adding turbo TMB (Pierce).
In decreasing order of binding level, these peptides include: RGKSC, RGKMC, RGKHC, RGKKC, RGKFC, RGKLC, RGKWC, and RGKVC (SEQ ID NOS 18, 7, 13, 14, 11, 1, 5 and 19, respectively). […] The best to least RGDO4C (SEQ ID NO: 44) peptides to bind biotin-NAT12 listed in Table VI are: RGDSC, RGDGC, RGDQC, RGDEC, RGDIC, RGDPC, RGDDC, and RGDYC (SEQ ID NOS 34, 28, 23, 22, 36, 38, 27 and 35, respectively). A solid phase peptide-peptide binding assay was used to determine biotin-NAT12 binding to library peptides. Test peptides in 0.1 M Na2CO3, pH 9.6 buffer, at 10 μg/well in 50 μl volume, were coupled to microtiter plate wells by overnight incubation at 4° C. After incubation, the contents of the wells were discarded and the wells were washed with a pH 7.4 buffer containing 0.01 M Na3PO4, 0.15 M NaCl, and 0.01% Tween 20. After blocking each well with 1% radioimmunoassay grade bovine serum albumin, the linked peptides were incubated with 100 μl of 100 μM biotin-NAT12 for 1 hour at 37° C. After incubation, the contents of the wells were dumped and the wells were washed three times (100 μl/well each time) with the buffer identified above. Each well then was incubated with 100 μl of 2 μg/ml solution of Immuno-Pure streptoavidin horeseradish peroxidase conjugate (Pierce Chemical Co., […], Ill.) for 1 hour at room temperature. The contents of the wells were discarded and the wells were washed three times as described above. The wells were then incubated with 100 μl of peroxidase-specific fast reacting substrate, turbo-3,3′,5,5′-tetramethylbenzidine (turbo-TMB, Pierce) for 5 minutes at room temperature and the developing color reaction was stopped by the addition of 100 μof 1 M phosphoric acid. The absorbance was measured at 450 nm using a Microplate Auto Reader EL311 (Bio-Tek, Winooski, Vt.).

[6] = RGKO4C sublibrary, platelet-rich plasma

| Substance | Fold Increase in Aggregation Inhibition over RPPGF [1, 6] [fold] | Ca2+ % Inhibition At 0.2 mM Peptide ([4]; RGKO4C sublibrary) [%] | Level of Binding to Biotin-NAT12 ([5]; RGKO4C sublibrary) | Fold Increase in Aggregation Inhibition over RPPGF ([1]; RGDO4C sublibrary) [fold] | Level of Binding to Biotin-NAT12 ([5]; RGDO4C sublibrary) | Ca2+ % Inhibition At 0.2 mM Peptide ([4]; RGDO4C sublibrary) [%] | other results |
| --- | --- | --- | --- | --- | --- | --- | --- |
| Arg-Gly-Lys-Trp-Cys (RGKWC-NH2) [peptide of the H-R-G-K-O4-C-NH2 sublibrary] | 1.3 | 62.5 | 1.3 | – | – | – | peptide concentration at which γ-thrombin-induced platelet aggregation returned ([1]; platelet-rich plasma): 0.125 mM; effect on ADP-induced platelet aggregation (in words) [2]: did not inhibit; level of biotin-NAT12 binding compared with other peptides (in words) [3]: binds to a greater extent than peptide RGDWC; also recorded: greater than RPPGF; also recorded: less than that seen with the multiple branched peptide MAP4RPPGF; peptide concentration at which α-thrombin overcame the inhibitory effect on Ca2+ mobilization ([4]; 2 nM α-thrombin, fibroblasts): 12.5 µM; peptide concentration at which α-thrombin-induced calcium mobilization is abolished ([4]; 2 nM α-thrombin, fibroblasts): 0.2 mM; peptide concentrations blocking α-thrombin-induced Ca2+ mobilization ([4]; 2 nM α-thrombin, fibroblasts): ≥ 50 µM |
| Arg-Pro-Pro-Gly-Phe (RPPGF) [bradykinin analog peptide used as control, reference compound] | 1.0 | – | 1.0 | 1 | 1 | – | peptide concentration at which γ-thrombin-induced platelet aggregation returned ([1]; platelet-rich plasma): 0.25 mM; effect on ADP-induced platelet aggregation (in words) [2]: did not inhibit |
| RGDMC: peptide of the H-R-G-D-O4-C-NH2 sublibrary (H-RGDMC-NH2) | – | – | – | 15 | 0.87 | 26.2 | – |
| RGDNC: peptide of the H-R-G-D-O4-C-NH2 sublibrary (H-RGDNC-NH2) | – | – | – | 5 | 0.739 | 44.3 | – |
| RGDQC: peptide of the H-R-G-D-O4-C-NH2 sublibrary (H-RGDQC-NH2) | – | – | – | 15.8 | 1.32 | 8.45 | – |
| RGDRC: peptide of the H-R-G-D-O4-C-NH2 sublibrary (H-RGDRC-NH2) | – | – | – | 5 | 0.99 | 0 | – |
| RGDSC: peptide of the H-R-G-D-O4-C-NH2 sublibrary (H-RGDSC-NH2) | – | – | – | 5 | 1.44 | 0 | level of biotin-NAT12 binding compared with other peptides (in words) [3]: equivalent to the ability of RGKWC |
| RGDTC: peptide of the H-R-G-D-O4-C-NH2 sublibrary (H-RGDTC-NH2) | – | – | – | 7.5 | 0.746 | 0 | – |
| RGDVC: peptide of the H-R-G-D-O4-C-NH2 sublibrary (H-RGDVC-NH2) | – | – | – | 15 | 0.723 | 2.56 | – |
| RGDYC: peptide of the H-R-G-D-O4-C-NH2 sublibrary (H-RGDYC-NH2) | – | – | – | 5 | 1.05 | 16.4 | – |
| RGKIC: peptide of the H-R-G-K-O4-C-NH2 sublibrary (H-RGKIC-NH2) | 1.3 | 13.8 | 0.98 | – | – | – | – |
| RGKLC: peptide of the H-R-G-K-O4-C-NH2 sublibrary (H-RGKLC-NH2) | 7.7 | 8.33 | 1.5 | – | – | – | – |
| RGKMC: peptide of the H-R-G-K-O4-C-NH2 sublibrary (H-RGKMC-NH2) | 1.3 | 7.95 | 2.1 | – | – | – | – |
| RGKRC: peptide of the H-R-G-K-O4-C-NH2 sublibrary (H-RGKRC-NH2) | 2.5 | 35.7 | 0.38 | – | – | – | – |
| RGKTC: peptide of the H-R-G-K-O4-C-NH2 sublibrary (H-RGKTC-NH2) | 4.4 | 26.8 | 0.597 | – | – | – | – |
| RGKYC: peptide of the H-R-G-K-O4-C-NH2 sublibrary (H-RGKYC-NH2) | 1.3 | 0 | 0.94 | – | – | – | – |

From patent US6544750B1, “Peptide analogs as selective inhibitors of thrombin activation of protease activated receptor 1” (Thromgen, Inc., priority 1999, dated 2003)
